According to ChEMBL document CHEMBL5108009, “Positron Emission Tomography (PET) Imaging Tracers for Serotonin Receptors” (J Med Chem, 2022):

How the values were obtained:
Macaca mulatta [1] = organism: Macaca mulatta; experiment: Binding affinity to rhesus monkey mesial temporal cingulate cortex 5-HT1A; type: tissue-based; conditions: filed as antagonist, tested as the 18F-labelled form
Macaca mulatta [2] = organism: Macaca mulatta; experiment: Binding affinity to rhesus monkey dorsal anterior cingulate cortex 5-HT1A; type: tissue-based; conditions: filed as antagonist, tested as the 18F-labelled form
[3] = target: Serotonin 3 (5-HT3) receptor
Description: Inhibition of 5HT3 receptor (unknown origin)

[4] = target: T1, 5-hydroxytryptamine receptor 7 (Homo sapiens, UniProt P34969); experiment: Binding affinity to human recombinant 5-HT7 receptor assessed as inhibition constant
T1 sequence (P34969 whole entry): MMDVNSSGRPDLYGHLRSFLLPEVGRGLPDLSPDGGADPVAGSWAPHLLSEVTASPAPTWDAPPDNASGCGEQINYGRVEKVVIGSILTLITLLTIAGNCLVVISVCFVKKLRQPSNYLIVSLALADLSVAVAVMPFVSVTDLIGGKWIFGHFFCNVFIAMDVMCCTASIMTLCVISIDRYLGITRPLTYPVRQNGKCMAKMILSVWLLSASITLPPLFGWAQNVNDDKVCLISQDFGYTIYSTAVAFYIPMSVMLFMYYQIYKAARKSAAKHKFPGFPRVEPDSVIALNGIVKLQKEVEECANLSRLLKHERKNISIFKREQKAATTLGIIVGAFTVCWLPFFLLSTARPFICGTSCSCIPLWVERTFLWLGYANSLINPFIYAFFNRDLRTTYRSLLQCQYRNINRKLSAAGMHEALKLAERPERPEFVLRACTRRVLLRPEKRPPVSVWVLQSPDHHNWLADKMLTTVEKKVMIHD

[5] = target: 5-hydroxytryptamine receptor 1A (Homo sapiens) (UniProt P08908); experiment: Binding affinity to 5-HT1A receptor (unknown origin); conditions: filed as agonist
[6] = target: T2, 5-hydroxytryptamine receptor 1A (Homo sapiens, UniProt P08908)
T2 sequence (P08908 whole entry): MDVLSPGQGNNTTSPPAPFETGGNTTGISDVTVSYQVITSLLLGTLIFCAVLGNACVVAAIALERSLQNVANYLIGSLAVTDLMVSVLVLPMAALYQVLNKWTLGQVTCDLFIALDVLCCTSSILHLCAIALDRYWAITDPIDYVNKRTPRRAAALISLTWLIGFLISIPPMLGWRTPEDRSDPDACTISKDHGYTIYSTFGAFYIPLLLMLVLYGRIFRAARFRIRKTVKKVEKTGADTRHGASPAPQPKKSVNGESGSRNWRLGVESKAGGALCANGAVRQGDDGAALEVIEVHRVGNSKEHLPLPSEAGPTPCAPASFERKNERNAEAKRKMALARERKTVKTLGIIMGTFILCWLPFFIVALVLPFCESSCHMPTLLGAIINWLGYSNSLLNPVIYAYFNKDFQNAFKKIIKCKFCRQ

[7] = Drug uptake in rat brain; type: ADME, tissue-based; conditions: in vivo
[8] = Drug biodistribution in rat brain incubated for 30 mins by autoradiographic analysis; type: ADME, organism-based; conditions: in vivo, 0.5 h
[9] = target: 5-hydroxytryptamine receptor 2B (Homo sapiens, UniProt P41595); experiment: Binding affinity to 5-HT2B receptor (unknown origin) assessed as inhibition constant
Sequence of 5-hydroxytryptamine receptor 2B (P41595 whole entry): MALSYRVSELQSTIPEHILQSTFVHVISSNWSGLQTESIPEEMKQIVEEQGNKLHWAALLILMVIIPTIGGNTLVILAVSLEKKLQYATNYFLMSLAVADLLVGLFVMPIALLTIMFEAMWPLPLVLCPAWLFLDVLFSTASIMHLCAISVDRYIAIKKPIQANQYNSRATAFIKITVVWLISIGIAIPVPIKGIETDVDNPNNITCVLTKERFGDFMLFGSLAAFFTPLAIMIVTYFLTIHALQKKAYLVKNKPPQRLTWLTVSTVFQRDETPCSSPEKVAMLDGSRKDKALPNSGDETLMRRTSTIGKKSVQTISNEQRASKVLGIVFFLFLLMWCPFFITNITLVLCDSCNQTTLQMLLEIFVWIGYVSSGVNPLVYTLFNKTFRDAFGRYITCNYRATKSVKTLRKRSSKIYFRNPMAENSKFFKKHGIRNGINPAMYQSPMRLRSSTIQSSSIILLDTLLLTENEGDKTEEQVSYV

[10] = target: 5-hydroxytryptamine receptor 1D (Homo sapiens, UniProt P28221); experiment: Binding affinity to 5-HT1D receptor (unknown origin) assessed as inhibition constant
Sequence of 5-hydroxytryptamine receptor 1D (P28221 whole entry): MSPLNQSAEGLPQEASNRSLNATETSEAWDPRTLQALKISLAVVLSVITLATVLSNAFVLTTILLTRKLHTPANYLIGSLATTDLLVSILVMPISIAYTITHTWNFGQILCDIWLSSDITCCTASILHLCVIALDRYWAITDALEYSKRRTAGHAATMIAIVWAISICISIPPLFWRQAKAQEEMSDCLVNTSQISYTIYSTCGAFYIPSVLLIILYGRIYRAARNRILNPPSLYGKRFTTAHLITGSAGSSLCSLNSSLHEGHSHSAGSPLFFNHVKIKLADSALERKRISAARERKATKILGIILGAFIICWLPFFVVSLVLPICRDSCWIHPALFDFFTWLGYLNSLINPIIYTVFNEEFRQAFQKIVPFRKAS

[11] = Ratio of drug biodistribution in rat hippocampus to cerebellum at 30 mins postinjection; type: ADME, organism-based; conditions: in vivo, 0.5 h
[12] = target: 5-hydroxytryptamine receptor 7 (Rattus norvegicus, UniProt P32305); experiment: Binding affinity to rat 5-HT7 receptor assessed as inhibition constant
Sequence of 5-hydroxytryptamine receptor 7 (Rattus norvegicus, UniProt P32305) (P32305 whole entry): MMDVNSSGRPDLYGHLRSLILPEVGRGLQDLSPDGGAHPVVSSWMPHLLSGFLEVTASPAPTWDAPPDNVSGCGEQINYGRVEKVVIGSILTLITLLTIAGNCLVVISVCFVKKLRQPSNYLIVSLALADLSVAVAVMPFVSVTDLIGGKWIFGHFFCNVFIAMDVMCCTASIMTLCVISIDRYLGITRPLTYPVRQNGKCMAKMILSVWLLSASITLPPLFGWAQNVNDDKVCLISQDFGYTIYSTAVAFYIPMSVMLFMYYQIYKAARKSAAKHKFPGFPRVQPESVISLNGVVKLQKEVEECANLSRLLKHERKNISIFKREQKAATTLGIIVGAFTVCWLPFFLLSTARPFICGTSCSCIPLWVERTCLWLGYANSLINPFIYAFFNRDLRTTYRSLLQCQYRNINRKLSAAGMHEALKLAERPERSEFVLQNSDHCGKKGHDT

[13] = Ratio of drug uptake in baboon insular cortex to cerebellum at 175 mins; type: ADME, tissue-based, Papio; conditions: in vivo, 2.917 h
[14] = Ratio of drug uptake in baboon anterior cingulate cortex to cerebellum at 175 mins; type: ADME, tissue-based, Papio; conditions: in vivo, 2.917 h
[15] = Ratio of drug uptake in baboon hippocampus to cerebellum at 175 mins; type: ADME, tissue-based, Papio; conditions: in vivo, 2.917 h
[16] = target: 5-hydroxytryptamine receptor 2A (Homo sapiens, UniProt P28223); experiment: Binding affinity to human 5-HT2A transfected in human tsA201 cells assessed as inhibition constant incubated for 2 hrs by scintillation counter analysis; type: cell-based
Sequence of 5-hydroxytryptamine receptor 2A (P28223 whole entry): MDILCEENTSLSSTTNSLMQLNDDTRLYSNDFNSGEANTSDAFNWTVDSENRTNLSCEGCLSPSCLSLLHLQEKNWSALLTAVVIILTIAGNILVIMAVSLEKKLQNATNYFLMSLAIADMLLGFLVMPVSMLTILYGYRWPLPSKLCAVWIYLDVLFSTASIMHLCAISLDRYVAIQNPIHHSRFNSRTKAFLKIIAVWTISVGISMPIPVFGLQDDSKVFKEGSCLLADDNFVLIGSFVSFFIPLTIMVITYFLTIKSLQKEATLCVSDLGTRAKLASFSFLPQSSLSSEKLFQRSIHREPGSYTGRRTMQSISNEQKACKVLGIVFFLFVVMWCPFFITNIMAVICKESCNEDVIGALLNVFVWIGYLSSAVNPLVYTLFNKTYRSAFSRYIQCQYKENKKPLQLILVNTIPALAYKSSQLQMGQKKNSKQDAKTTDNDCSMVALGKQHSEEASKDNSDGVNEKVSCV

[17] = Drug uptake in cynomolgus monkey brain treated with WAY-100635 followed by compound 878 Ci/mmol, iv measured at 2.5 mins postinjection by PET imaging relative to control; type: ADME, organism-based, Macaca fascicularis; conditions: in vivo
[18] = target: T1, 5-hydroxytryptamine receptor 7; experiment: Binding affinity to human recombinant 5-HT7 receptor expressed in CHO cells assessed as inhibition constant; type: cell-based
[19] = target: T2, 5-hydroxytryptamine receptor 1A; experiment: Binding affinity to human recombinant 5-HT1A expressed in CHO cells assessed as inhibition constant; type: cell-based
[20] = Displacement of [3H]-8-OH-DPAT from bovine hippocampal tissue 5HT1A receptor by competitive binding assay; type: tissue-based, Bos taurus, Hippocampus
[21] = Drug metabolism in monkey plasma assessed as unchanged compound at 120 mins postinjection relative to control; type: ADME, organism-based, Macaca mulatta; conditions: rhesus monkey, read-out: Stability

With `COc1ccccc1N1CCN(CCN(c2ccccn2)C(=O)[C@H]2CC[C@H](CF)CC2)CC1` the Bmax (Macaca mulatta [1]) was 42 pmol/mL and the Bmax (Macaca mulatta [2]) was 36 pmol/mL.

`CN1CCN(c2ccc3ccccc3n2)CC1` showed an IC50 [3] of 4.7 nM.

`COc1cccc(N2CCN(CCCCC3C(=O)Nc4ccccc43)CC2)c1` (stereo not drawn) showed a Ki [4] of 2.6 nM.

Compound `COc1ccccc1N1CCN(CC(O)COc2cccc3c2SCCC3)CC1` (stereo not drawn) has a K [5] of 5 nM.

In the case of `COc1ccc2cccc(N3CCN(CCNC(=O)c4ccc([18F])cc4)CC3)c2c1`, the Ki [6] is reported as 0.98 nM and the SUV [7] is reported as 2.

Compound `[O-][S+](c1ccc([18F])cc1)C1CCN(CCc2ccc(F)cc2F)CC1` (stereo not drawn) has a Drug uptake [8] of 30%.

Work on `COc1ccccc1N1CCN(CC[C@@H](C(=O)N2CCCCCC2)c2ccccc2)CC1` yielded a Ki [6] of 0.6 nM, a Ki [9] of 7.2 nM and a Ki [10] of 9.5 nM.

With `COc1ccccc1N1CCN(CCN(C(=O)c2ccc([18F])cc2)c2ncccn2)CC1` the Ratio [11] was 5.5 and the Ki [6] was < 1 nM.

Compound `CC1(CCCCN2CCN(c3cccc(OCCF)c3)CC2)C(=O)Nc2ccccc21` (stereo not drawn) has a Ki [12] of 5.6 nM.

For `Cc1ccc(N2CCN(CCCCC3C(=O)Nc4ccccc43)CC2)cc1` (stereo not drawn), the Ki [4] was 1.1 nM.

`Cn1c(=O)cnn(CCCCN2CCN(c3ccccc3OCC[18F])CC2)c1=O` showed a Ratio [13] of 1.8, a Ratio [14] of 2.3 and a Ratio [15] of 4.

For `COc1cc(CCNCc2ccccc2OC)c(OCC[18F])cc1Br`, the Ki [16] was < 1.2 nM.

For `CC1(C(=O)N(CCN2CCN(c3ccccc3O[11CH3])CC2)c2ccccn2)CCCCC1`, the Drug uptake [17] was 3% and the Ki [6] was 2.3 nM.

For `COc1ccccc1N1CCN(CCC[C@H]2CCCN2S(=O)(=O)c2ccc(F)cc2)CC1`, the Ki [18] was 2.6 nM and the Ki [19] was 6.8 nM.

With `COc1cc(Br)c(OCC[18F])cc1CCNCc1ccccc1OC` the Ki [16] was < 1.2 nM.

With `O=S(=O)(c1ccc([18F])cc1)C1CCN(CCc2ccc(F)cc2F)CC1` the Drug uptake [8] was > 80%.

`COc1cn2cccc2c(N2CCN(Cc3ccc(F)cc3)CC2)n1` gave an IC50 [3] of 6.6 nM.

`[11CH3]O[C@H]1CC[C@@H](C(=O)N(CCN2CCN(c3ccccc3O)CC2)c2ccccn2)CC1` gave a Ki [20] of 24 nM.

In the case of `CN1CCN(c2cc(F)cc3c(=O)cc(C(=O)Nc4ccc(N5CCOCC5)c([18F])c4)oc23)CC1`, the remaining at 2 h [21] is reported as > 40%.
